According to patent US12139480B2, “5-thiazolecarboxamide kinase inhibitor and uses thereof” (iOmx Therapeutics AG, priority 2018, dated 2024):
Where two headings read alike, the source gives them in different places.

Columns and labels:
ACV-R2B = ACV-R2B (Homo sapiens, UniProt Q13705); test: biochemical; details: read-out: % residual activity class (FIG. 3)
JAK1 aa583-1154 wt = biological target: T1, JAK1 aa583-1154 wt (Homo sapiens, UniProt P23458); test: single-point (1 uM) inhibition assay (ProQinase Kinase Profiler); type: biochemical
T1 construct: JAK1 aa583-1154 wt; purchased ProQinase, Freiburg, Germany (Kinase Profiler panel)

BMPR1A = biological target: T2, BMPR1A (Homo sapiens, UniProt P36894); test: as above; type: biochemical
T2 construct: purchased ProQinase, Freiburg, Germany (Kinase Profiler panel)

K562 CML cells = details: cited from earlier work
EPHA6 = EPHA6 (Homo sapiens, UniProt Q9UF33); test: single-point (1 uM) inhibition assay (ProQinase Kinase Profiler); type: biochemical; details: 1 uM compound, read-out: % residual activity class (FIG. 3)
ERBB2 = ERBB2 (Homo sapiens, UniProt P04626); test: as above; type: biochemical; details: read-out: % residual activity class (FIG. 3)
p38-beta = p38-beta (Homo sapiens, UniProt Q15759); test: biochemical; details: read-out: % residual activity class (FIG. 3)
KU812 tumours = details: large KU812 tumours (up to >1 g); 50 mg/kg/day for 5 days; cited from earlier work
FGF-R2 = FGF-R2 (Homo sapiens, UniProt P21802); test: single-point (1 uM) inhibition assay (ProQinase Kinase Profiler); type: biochemical; details: read-out: % residual activity class (FIG. 3)
RAF1 = test: as above; type: biochemical; details: 1 uM compound
EPHA1 = biological target: T3, EPHA1 (Homo sapiens, UniProt P21709); test: as above; type: biochemical
T3 construct: purchased ProQinase

TGFB-R1 = biological target: T4, TGFB-R1 (Homo sapiens, UniProt P36897); test: as above; type: biochemical; details: 1 uM compound, read-out: % residual activity class (FIG. 3)
T4 construct: purchased ProQinase

EGF-R = biological target: T5, EGF-R (Homo sapiens, UniProt P00533); test: as above; type: biochemical; details: 1 uM compound, read-out: % residual activity class (FIG. 3)
T5 construct: purchased ProQinase

WNK2 = WNK2 (Homo sapiens, UniProt Q9Y3S1); test: biochemical; details: read-out: Residual activity (%) at 1 uM
KIT = biological target: T6, KIT (Homo sapiens, UniProt P10721); test: single-point (1 uM) inhibition assay (ProQinase Kinase Profiler); type: biochemical
T6 construct: purchased ProQinase

CSF1-R = biological target: T7, CSF1-R (Homo sapiens, UniProt P07333); test: as above; type: biochemical; details: 1 uM compound, read-out: % residual activity class (FIG. 3)
T7 construct: purchased ProQinase

EPHA2 = biological target: T8, EPHA2 (Homo sapiens, UniProt P29317); test: as above; type: biochemical
T8 construct: purchased ProQinase

BRK = biological target: T9, BRK (Homo sapiens, UniProt Q13882); test: as above; type: biochemical; details: 1 uM compound, read-out: % residual activity class (FIG. 3)
T9 construct: purchased ProQinase

FLT3 = biological target: T10, FLT3 (Homo sapiens, UniProt P36888); test: as above; type: biochemical; details: read-out: % residual activity class (FIG. 3)
T10 construct: purchased ProQinase

[1] = human liver microsomal stability; type: in vitro ADME
EPHB4 = biological target: T11, EPHB4 (Homo sapiens, UniProt P54760); test: biochemical
T11 construct: purchased ProQinase

EPHA5 = biological target: T12, EPHA5 (Homo sapiens, UniProt P54756); test: single-point (1 uM) inhibition assay (ProQinase Kinase Profiler); type: biochemical
T12 construct: purchased ProQinase

LCK = biological target: T13, LCK (Homo sapiens, UniProt P06239); test: as above; type: biochemical; details: 1 uM compound, read-out: % residual activity class (FIG. 3)
T13 construct: purchased ProQinase

YES = biological target: T14, YES (Homo sapiens, UniProt P07947); test: as above; type: biochemical; details: 1 uM compound, read-out: % residual activity class (FIG. 3)
T14 construct: purchased ProQinase

ABL1 = biological target: T15, ABL1 (Homo sapiens, UniProt P00519); test: biochemical; details: 1 uM compound, read-out: % residual activity class (FIG. 3)
T15 construct: purchased ProQinase

EPHB3 = biological target: T16, EPHB3 (Homo sapiens, UniProt P54753); test: single-point (1 uM) inhibition assay (ProQinase Kinase Profiler); type: biochemical
T16 construct: purchased ProQinase

EPHA8 = biological target: T17, EPHA8 (Homo sapiens, UniProt P29322); test: as above; type: biochemical
T17 construct: purchased ProQinase

BTK = biological target: T18, BTK (Homo sapiens, UniProt Q06187); test: as above; type: biochemical; details: 1 uM compound, read-out: % residual activity class (FIG. 3)
T18 construct: purchased ProQinase

SRC = biological target: T19, SRC (Homo sapiens, UniProt P12931); test: biochemical; details: 1 uM compound, read-out: % residual activity class (FIG. 3)
T19 construct: purchased ProQinase

[2] = mouse liver microsomal stability; type: in vitro ADME
ACV-R2A = biological target: T20, ACV-R2A (Homo sapiens, UniProt P27037); test: single-point (1 uM) inhibition assay (ProQinase Kinase Profiler); type: biochemical; details: 1 uM compound, read-out: % residual activity class (FIG. 3)
T20 construct: purchased ProQinase

[3] = read-out: % residual activity class (FIG. 3)
[4] = read-out: Residual activity (%) at 1 uM

T3 sequence (P21709 26-976): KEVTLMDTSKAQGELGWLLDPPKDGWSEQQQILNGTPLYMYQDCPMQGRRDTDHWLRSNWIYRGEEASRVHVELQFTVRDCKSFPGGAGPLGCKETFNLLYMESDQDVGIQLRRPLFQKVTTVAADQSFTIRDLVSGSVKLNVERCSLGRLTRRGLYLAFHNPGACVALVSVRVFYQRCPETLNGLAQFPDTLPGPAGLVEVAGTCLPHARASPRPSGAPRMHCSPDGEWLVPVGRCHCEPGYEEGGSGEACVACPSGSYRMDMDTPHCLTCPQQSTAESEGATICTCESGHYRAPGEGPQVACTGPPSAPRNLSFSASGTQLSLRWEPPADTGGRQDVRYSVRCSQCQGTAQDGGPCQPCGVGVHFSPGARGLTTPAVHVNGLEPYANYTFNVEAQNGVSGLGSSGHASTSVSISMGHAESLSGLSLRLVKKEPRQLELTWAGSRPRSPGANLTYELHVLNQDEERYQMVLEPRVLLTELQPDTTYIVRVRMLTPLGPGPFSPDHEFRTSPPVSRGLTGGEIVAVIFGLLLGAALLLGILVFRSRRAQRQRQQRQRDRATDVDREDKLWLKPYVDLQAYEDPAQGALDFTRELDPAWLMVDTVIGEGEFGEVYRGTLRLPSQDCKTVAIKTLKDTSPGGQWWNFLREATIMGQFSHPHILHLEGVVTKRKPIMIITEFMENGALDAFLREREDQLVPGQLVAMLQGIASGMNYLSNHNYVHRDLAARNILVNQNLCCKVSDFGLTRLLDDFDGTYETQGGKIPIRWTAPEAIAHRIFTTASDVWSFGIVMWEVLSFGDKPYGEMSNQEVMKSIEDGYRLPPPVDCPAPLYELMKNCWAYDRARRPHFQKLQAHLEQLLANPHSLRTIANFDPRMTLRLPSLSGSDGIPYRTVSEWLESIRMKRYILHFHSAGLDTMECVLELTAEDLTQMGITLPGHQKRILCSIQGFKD
T12 sequence (P54756 25-1037): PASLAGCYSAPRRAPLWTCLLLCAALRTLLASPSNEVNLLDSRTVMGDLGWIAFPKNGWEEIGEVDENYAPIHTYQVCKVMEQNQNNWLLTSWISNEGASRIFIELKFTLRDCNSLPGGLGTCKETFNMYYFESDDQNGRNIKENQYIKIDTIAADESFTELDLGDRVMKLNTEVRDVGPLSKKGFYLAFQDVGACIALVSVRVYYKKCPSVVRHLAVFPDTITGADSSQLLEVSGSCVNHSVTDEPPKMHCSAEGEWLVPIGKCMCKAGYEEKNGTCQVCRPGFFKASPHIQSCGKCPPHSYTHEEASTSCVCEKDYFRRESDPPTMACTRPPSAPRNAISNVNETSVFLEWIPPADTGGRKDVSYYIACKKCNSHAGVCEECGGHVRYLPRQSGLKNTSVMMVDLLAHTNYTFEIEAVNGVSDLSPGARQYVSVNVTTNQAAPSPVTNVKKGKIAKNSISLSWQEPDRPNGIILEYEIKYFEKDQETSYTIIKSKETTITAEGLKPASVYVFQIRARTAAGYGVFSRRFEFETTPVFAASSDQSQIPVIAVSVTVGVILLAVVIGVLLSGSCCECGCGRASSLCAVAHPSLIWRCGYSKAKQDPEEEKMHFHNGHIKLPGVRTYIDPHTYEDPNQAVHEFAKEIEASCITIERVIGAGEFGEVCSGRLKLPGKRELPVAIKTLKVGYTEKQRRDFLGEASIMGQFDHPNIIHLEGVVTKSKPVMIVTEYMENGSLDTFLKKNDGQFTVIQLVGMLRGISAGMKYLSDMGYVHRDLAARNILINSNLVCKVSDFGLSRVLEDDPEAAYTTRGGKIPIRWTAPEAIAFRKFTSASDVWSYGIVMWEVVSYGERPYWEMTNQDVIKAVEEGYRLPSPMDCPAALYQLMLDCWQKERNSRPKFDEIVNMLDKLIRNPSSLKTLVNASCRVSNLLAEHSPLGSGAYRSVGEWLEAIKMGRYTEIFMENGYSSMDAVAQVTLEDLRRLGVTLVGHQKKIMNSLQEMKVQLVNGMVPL
T8 sequence (P29317 24-976): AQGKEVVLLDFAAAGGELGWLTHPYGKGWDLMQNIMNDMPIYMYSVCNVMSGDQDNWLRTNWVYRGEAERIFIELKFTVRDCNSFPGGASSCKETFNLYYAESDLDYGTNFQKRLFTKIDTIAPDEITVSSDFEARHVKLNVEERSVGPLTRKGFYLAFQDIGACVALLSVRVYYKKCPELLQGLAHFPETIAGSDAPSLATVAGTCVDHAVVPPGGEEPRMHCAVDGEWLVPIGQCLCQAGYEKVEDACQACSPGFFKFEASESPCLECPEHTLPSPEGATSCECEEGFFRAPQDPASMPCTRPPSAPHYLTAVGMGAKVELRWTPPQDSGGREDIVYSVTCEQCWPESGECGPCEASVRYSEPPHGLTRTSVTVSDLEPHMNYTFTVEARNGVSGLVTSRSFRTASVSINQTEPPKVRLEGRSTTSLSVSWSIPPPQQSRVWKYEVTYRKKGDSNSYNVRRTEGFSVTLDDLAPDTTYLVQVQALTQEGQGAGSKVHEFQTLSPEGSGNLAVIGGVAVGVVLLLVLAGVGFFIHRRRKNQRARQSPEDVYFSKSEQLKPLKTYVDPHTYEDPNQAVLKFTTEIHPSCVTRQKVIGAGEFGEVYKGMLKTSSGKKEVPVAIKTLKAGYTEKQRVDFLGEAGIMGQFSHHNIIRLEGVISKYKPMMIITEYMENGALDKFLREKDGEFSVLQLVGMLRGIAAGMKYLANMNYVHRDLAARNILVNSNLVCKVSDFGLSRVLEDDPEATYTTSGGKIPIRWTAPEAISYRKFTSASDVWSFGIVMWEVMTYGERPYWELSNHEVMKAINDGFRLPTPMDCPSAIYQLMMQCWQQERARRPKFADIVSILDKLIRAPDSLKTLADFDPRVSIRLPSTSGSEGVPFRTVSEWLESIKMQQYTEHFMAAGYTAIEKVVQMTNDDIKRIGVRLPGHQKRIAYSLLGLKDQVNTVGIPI
T6 sequence (P10721 26-976): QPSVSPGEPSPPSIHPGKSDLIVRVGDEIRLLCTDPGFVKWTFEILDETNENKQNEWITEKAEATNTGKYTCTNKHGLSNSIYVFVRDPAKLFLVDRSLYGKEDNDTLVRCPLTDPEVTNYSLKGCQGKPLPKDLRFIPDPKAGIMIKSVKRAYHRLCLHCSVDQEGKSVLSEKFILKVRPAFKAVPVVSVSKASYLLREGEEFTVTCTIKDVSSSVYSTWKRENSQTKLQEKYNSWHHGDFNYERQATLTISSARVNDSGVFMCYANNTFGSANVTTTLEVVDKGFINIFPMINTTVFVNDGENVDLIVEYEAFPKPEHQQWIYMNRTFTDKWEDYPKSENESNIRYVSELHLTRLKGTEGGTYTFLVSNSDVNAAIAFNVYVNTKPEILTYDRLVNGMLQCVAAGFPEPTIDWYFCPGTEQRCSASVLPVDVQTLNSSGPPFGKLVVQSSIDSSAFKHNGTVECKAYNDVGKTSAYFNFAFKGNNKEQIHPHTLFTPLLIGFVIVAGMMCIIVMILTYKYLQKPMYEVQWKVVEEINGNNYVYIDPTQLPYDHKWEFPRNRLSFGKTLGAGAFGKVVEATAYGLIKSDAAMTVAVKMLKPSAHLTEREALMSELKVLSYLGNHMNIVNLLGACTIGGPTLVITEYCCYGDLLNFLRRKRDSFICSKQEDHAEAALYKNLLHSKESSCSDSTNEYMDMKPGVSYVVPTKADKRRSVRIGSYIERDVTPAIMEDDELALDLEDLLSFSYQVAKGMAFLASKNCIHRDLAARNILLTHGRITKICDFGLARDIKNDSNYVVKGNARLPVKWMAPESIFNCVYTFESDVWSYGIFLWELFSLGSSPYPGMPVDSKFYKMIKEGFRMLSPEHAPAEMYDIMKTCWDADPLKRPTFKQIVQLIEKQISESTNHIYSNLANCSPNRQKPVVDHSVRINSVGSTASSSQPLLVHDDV
T16 sequence (P54753 34-998): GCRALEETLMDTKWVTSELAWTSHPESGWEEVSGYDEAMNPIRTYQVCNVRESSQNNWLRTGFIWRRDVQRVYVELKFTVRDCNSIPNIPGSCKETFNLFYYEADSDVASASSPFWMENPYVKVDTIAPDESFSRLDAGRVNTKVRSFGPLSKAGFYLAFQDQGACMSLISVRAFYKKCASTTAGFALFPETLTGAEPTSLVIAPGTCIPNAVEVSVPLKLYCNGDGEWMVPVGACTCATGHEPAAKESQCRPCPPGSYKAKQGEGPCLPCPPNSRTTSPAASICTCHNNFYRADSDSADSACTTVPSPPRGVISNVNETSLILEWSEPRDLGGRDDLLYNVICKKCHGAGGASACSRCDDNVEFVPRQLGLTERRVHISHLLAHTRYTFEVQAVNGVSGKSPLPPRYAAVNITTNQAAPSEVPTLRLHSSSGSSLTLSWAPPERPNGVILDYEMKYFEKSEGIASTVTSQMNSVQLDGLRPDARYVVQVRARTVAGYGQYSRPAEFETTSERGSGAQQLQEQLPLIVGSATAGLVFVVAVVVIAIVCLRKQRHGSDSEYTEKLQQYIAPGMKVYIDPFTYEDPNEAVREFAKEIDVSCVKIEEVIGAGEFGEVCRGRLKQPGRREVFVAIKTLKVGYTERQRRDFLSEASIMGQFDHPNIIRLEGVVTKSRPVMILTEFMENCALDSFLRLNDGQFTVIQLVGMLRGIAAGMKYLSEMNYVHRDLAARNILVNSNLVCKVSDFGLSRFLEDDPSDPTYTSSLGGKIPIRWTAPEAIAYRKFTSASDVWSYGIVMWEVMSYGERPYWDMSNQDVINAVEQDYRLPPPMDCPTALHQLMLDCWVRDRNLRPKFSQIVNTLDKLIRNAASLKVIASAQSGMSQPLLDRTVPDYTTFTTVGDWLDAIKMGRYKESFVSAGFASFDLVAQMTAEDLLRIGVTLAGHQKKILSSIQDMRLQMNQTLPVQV

## Cc1nc(Nc2ncc(C(=O)Nc3c(C)cccc3Cl)s2)cc(N2CCN(CCO)CC2)n1 [Compound A8, N-(2-chloro-6-methylphenyl)-2-((6-(4-(2-hydroxyethyl)piperazin-1-yl)-2-methylpyrimidin-4-yl)amino)thiazole-5-carboxamide, reference compound]
ACV-R2B
  remaining activity at 1 µM: < 25%
JAK1 aa583-1154 wt; [3]
  remaining activity at 1 µM: 25 to 50%
JAK1 aa583-1154 wt; [4]
  remaining activity at 1 µM: 41%
BMPR1A; BMPR1A, 1 uM compound, read-out: % residual activity class (FIG. 3)
  remaining activity at 1 µM: 25 to 50%
BMPR1A; [4]
  remaining activity at 1 µM: 42%
K562 CML cells; 10 mg/kg/day
  survival: increased survival
K562 CML cells; similar study, dasatinib 10 and 30 mg/kg/day, imatinib 200 mg/kg/day
  survival / intracranial tumour growth: increased survival
EPHA6
  remaining activity at 1 µM: 25 to 50%
ERBB2
  remaining activity at 1 µM: 25 to 50%
p38-beta
  remaining activity at 1 µM: < 25%
KU812 tumours
  tumour response: curative
FGF-R2
  remaining activity at 1 µM: 25 to 50%

## Cc1nc(Nc2ncc(C(=O)Nc3c(Cl)ccnc3C)s2)cc(N2CCN(CCO)CC2)n1 [Compound B3, N-(4-chloro-2-methylpyridin-3-yl)-2-((6-(4-(2-hydroxyethyl)piperazin-1-yl)-2-methylpyrimidin-4-yl)amino)thiazole-5-carboxamide]
RAF1
  % residual activity class (FIG. 3): *** (25% to <50% residual activity)
EPHA1; [3]
  remaining activity at 1 µM: < 25%
EPHA1; [4]
  remaining activity at 1 µM: 3%
TGFB-R1
  remaining activity at 1 µM: 25 to 50%
EGF-R
  remaining activity at 1 µM: 25 to 50%
WNK2
  remaining activity at 1 µM: 100%
KIT; [3]
  remaining activity at 1 µM: < 25%
KIT; [4]
  remaining activity at 1 µM: 5%
CSF1-R
  remaining activity at 1 µM: < 25%
EPHA2; [3]
  remaining activity at 1 µM: < 25%
EPHA2; [4]
  remaining activity at 1 µM: 0%
BRK
  remaining activity at 1 µM: < 25%
FLT3
  remaining activity at 1 µM: 25 to 50%
[1]
  Half-life: 0.967 h
EPHB4; EPHB4, 1 uM compound, read-out: % residual activity class (FIG. 3)
  remaining activity at 1 µM: < 25%
EPHB4; [4]
  remaining activity at 1 µM: 1%
EPHA5; [3]
  remaining activity at 1 µM: < 25%
EPHA5; [4]
  remaining activity at 1 µM: 1%
LCK
  remaining activity at 1 µM: < 25%
YES
  remaining activity at 1 µM: < 25%
ABL1
  remaining activity at 1 µM: < 25%
EPHB3; [3]
  remaining activity at 1 µM: < 25%
EPHB3; [4]
  remaining activity at 1 µM: 3%
EPHA8; [3]
  remaining activity at 1 µM: < 25%
EPHA8; [4]
  remaining activity at 1 µM: 3%
BTK
  remaining activity at 1 µM: < 25%
SRC
  remaining activity at 1 µM: < 25%
[2]
  Half-life: 1.03 h
ACV-R2A
  remaining activity at 1 µM: 25 to 50%
